Results reported in patent US20240316064A1, “USE OF ESTRETOL AS A TREATMENT FOR ENDOMETRIOSIS” (UNIVERSIDAD BERNANDO O'HIGGINS, priority 2021, published 2024).

Legend:
ERα/ERβ ratio = ERα/ERβ ratio of protein levels in endometriotic cells; type: cell-based; conditions: versus control and estradiol conditions
11Z epithelial cells [1] = test: PARP cleavage rate (apoptosis), Western blot, 11Z cells; type: cell-based; conditions: 24 h incubation, most estetrol and estradiol concentrations
Description: (§1) FIG. 1. […] (A) Western blot analysis against PARP and β-actin after 24 h incubation (B) MTS assay after 24 h incubation (C) Scratch assay. […] The experiments were performed on 2 cell lines, Hs832, endometrial stromal cells and 11Z cells, endometrial epithelium cells.

Hs832 stromal cell line [2] = test: MTS cell viability assay, Hs832 cells; type: cell-based; conditions: 24 h, all estetrol concentrations tested
Description: (§2) FIG. 1. Evaluation of apoptosis, cell viability and migration after treatments with E2 and E4 in endometriotic cells. (A) Western blot analysis against PARP and β-actin after 24 h incubation (B) MTS assay after 24 h incubation (C) Scratch assay.
(§3) To assess cell viability, the MTS assay was performed after 24 h.

ER β = test: ERβ protein levels by Western blot in endometriotic cells; type: cell-based
ERα = ERα protein levels by Western blot in endometriotic cells; type: cell-based; conditions: most of the concentrations used
PRB = PRB protein levels by Western blot in endometriotic cells; type: cell-based
Hs832 cells = test: Wound (scratch) migration assay, Hs832 cells; type: cell-based; conditions: Hs832, estetrol 10^−6, any time point studied
Description: as §2

PRA = PRA protein levels by Western blot in endometriotic cells
Hs832 stromal cell line [3] = test: PARP cleavage rate (apoptosis), Western blot, Hs832 cells; type: cell-based; conditions: 24 h incubation, almost all estetrol concentrations (except 108M)
Description: as §1

11Z epithelial cells [4] = test: MTS cell viability assay, 11Z cells; type: cell-based; conditions: 24 h, all estetrol concentrations tested
Description: as §2, §3

11Z cells = test: Wound (scratch) migration assay, 11Z cells; type: cell-based; conditions: estetrol 10^−6, any time point studied
Description: as §2

[5] = system: genes associated with the progesterone signaling pathway; test: PCR array for progesterone-regulated genes in Hs832 cells; type: cell-based; conditions: 24 h E4 (10^−6M) then 6h pulse with P4 (10^−7M), versus P4 without pre-treatment; for expression of PTGER2, NF1, MUC1, TWIST1 and SNAI1: change to a lesser extent
Description: FIG. 4. PCR Array Analysis for Progesterone-Regulated Genes in Endometrial Cells, Hs832 Cells. The expression of genes regulated by progesterone (P4) is compared, when incubating with P4 without previous treatment or with a 24 hour treatment with Estetrol.
Procedure: Hs832 endometriosis cells were incubated for 24 h with E4 (10^−6M) or vehicle (ethanol) as a control, then both cells received a 6h pulse with P4 (10^−7M) to then extract their messenger RNA in order to evaluate the levels. expression of 24 genes associated with the progesterone signaling pathway.

Compound: C[C@]12CC[C@@H]3c4ccc(O)cc4CC[C@H]3[C@@H]1[C@@H](O)[C@@H](O)[C@@H]2O [estetrol]
- ERα/ERβ ratio (ERα/ERβ ratio; 11Z cells, estetrol 10^−7/10^−6/10^−5M): significantly increases
- ERα/ERβ ratio (ERα/ERβ ratio; Hs832 cells, estetrol 10^−9/10^−7M): significantly increases
- PARP cleavage rate (apoptosis) (11Z epithelial cells [1]): apoptosis was reduced
- changes in cell viability compared to controls (MTS) (Hs832 stromal cell line [2]): None of the estetrol concentrations tested showed changes
- ER protein levels (ER β levels over β-actin, FIG. 2B) (ER β; 11Z, estetrol, most concentrations used): reduced levels
- ER protein levels (ER β levels over β-actin, FIG. 2B) (ER β; Hs832, estetrol, all conditions): reduced levels
- ERα levels over β-actin (ERα; 11Z, estetrol): robust increase
- ERα levels over β-actin (ERα; Hs832, estetrol): robust increase
- PRB protein levels over β-actin (PRB; 11Z cells, estetrol, all concentrations used): more consistent increase
- PRB protein levels over β-actin (PRB; HsS32, estetrol 10^−6/10^−5M): more consistent increase
- migration (wound assay) (Hs832 cells): showed no difference from the control
- PRA protein levels over β-actin (PRA; 11Z, estetrol 10^−9/10^−8M): increase
- PRA protein levels over β-actin (PRA; Hs832, estetrol 10^−5M): increase
- PRA protein levels over β-actin (PRA; HsS32, estetrol 10^−9/10^−7M): decreased
- PARP cleavage rate (apoptosis) (Hs832 stromal cell line [3]): significant decrease
- changes in cell viability compared to controls (MTS) (11Z epithelial cells [4]): None of the estetrol concentrations tested showed changes
- migration (wound assay) (11Z cells): showed no difference from the control
- decrease of expression of FGF12, GCFC2, PWP1, ITGA6, ZEB1, POSTN and FKBP25 [5]: to a lesser extent
- expression of NFIX, GNRFI1, ESR1, MEF2D and I HH [5]: stimulating the expression
- expression of PRL, SNAI2, RAD54L, HES1, ABCG2, TCF4 [5]: strongly decreasing
- expression of PTGER2, NF1, MUC1, TWIST1 and SNAI1 [5]: increase
- expression of PTGER2, NF1, MUC1, TWIST1 and SNAI1 ([5]; listed as E4): increases
- expression of PRL, SNAI2, RAD54L, HES1, ABCG2, TCF4 ([5]; listed as E4): strongly decreases
